Laboratory results published in patent US10808018B2, “Erythropoietin-derived peptides and methods of protecting cells from oxidative damage induced by reactive oxygen species” (SYLUS CO., LTD., priority 2017, dated 2020).
Peptide text beside a SMILES is read from it.

Biological target: T1, Soluble mouse EPOR chimera proteins (erythropoietin receptor) (Mus musculus, UniProt P14753)
T1 construct: Soluble mouse EPOR chimera proteins; purchased R&D Systems
T1 sequence (P14753 25-249 limits assumed): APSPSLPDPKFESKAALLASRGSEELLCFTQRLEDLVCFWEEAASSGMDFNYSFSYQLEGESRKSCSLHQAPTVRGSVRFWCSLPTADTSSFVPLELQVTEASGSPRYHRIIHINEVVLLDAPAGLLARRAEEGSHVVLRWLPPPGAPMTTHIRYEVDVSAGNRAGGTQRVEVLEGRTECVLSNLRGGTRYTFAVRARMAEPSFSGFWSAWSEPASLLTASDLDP
Test: Surface plasmon resonance (SPR) binding affinity to erythropoietin receptor
Conditions: for Ka: association rate
Description: The SPR technique is to measure interactions between biomolecules in real-time by using an optical principle without specific labeling, and is a system analyzing affinity between two molecules and kinetics, i.e., an association rate (Ka) and a dissociation rate (Kd). In detail, real-time SPR analysis may be performed using Reichert SPR Biosensor SR […] instrument (Reichert Inc., NY, USA). Soluble mouse EPOR chimera proteins (R&D Systems, Minneapolis, Minn., USA) were covalently linked to a carboxymethylated dextran matrix-coated chip (BR-1005-39, Pharmacia Biosensor AB) by an amine coupling procedure using an amine coupling kit (BR-1000-50, GE Healthcare, USA) in accordance with manufacturer's instructions. Each 5 pM, 2.5 pM, and 1.25 pM of the peptide samples of the present disclosure and scrambled peptides were applied at a flow rate of 5 μl/minute, and the experiments were independently performed in duplicate. For signal normalization, DMSO was applied at a flow rate of 5 μl/minute. After each binding cycle, the sensor chip was regenerated by injecting 25 mM of acetic acid at a flow rate of 20 μl/minute.

Structure (SMILES) | Ka (Table 8) | dissociation rate constant (koff) (Table 8) | Ka (Table 9) | dissociation rate constant (koff) (Table 9) | Kd (Table 8)
CSCC[C@H](NC(=O)[C@@H](NC(=O)[C@H](Cc1c[nH]cn1)NC(=O)[C@H](CO)NC(=O)[C@H](CC(C)C)NC(=O)[C@H](CC(C)C)NC(=O)CNC(=O)[C@H](CO)NC(=O)[C@@H](NC(=O)[C@H](CCCNC(=N)N)NC(=O)[C@H](CCCCN)NC(=O)[C@H](CC(C)C)NC(=O)[C@@H](NC(=O)[C@H](Cc1c[nH]cn1)NC(=O)[C@H](CC(C)C)NC(=O)[C@H](CCC(N)=O)NC(=O)[C@@H](N)CC(C)C)C(C)C)C(C)C)[C@@H](C)O)C(=O)N[C@@H](CC(C)C)C(=O)N[C@@H](CC(C)C)C(=O)N[C@@H](CCCCN)C(=O)N[C@@H](C)C(=O)N[C@@H](CC(C)C)C(=O)NCC(=O)O [ML1-1] (H-LQLHVLKRVSGLLSHTMLLKALG-OH; N-terminus and C-terminus assumed) | 5.55 × 10^3 | 5.9 × 10^−3 | – | – | –
CC(C)C[C@H](NC(=O)CNC(=O)[C@H](CO)NC(=O)[C@@H](NC(=O)[C@H](C)NC(=O)[C@H](CCCCN)NC(=O)[C@H](CC(C)C)NC(=O)[C@@H](NC(=O)[C@H](Cc1c[nH]cn1)NC(=O)[C@H](CC(C)C)NC(=O)[C@H](CCC(N)=O)NC(=O)[C@@H](N)CC(C)C)C(C)C)C(C)C)C(=O)N[C@@H](CC(C)C)C(=O)N[C@H](C(=O)N[C@@H](Cc1c[nH]cn1)C(=O)N[C@H](C(=O)N[C@H](C(=O)N[C@@H](CC(C)C)C(=O)N[C@@H](CC(C)C)C(=O)N[C@@H](CCCCN)C(=O)N[C@@H](C)C(=O)N[C@@H](CC(C)C)C(=O)NCC(=O)O)[C@@H](C)O)[C@@H](C)O)[C@@H](C)O [ML1-H1] (H-LQLHVLKAVSGLLTHTTLLKALG-OH; N-terminus and C-terminus assumed) | – | – | 1.01E+03 | 7.94E−03 | –
CC(C)C[C@H](NC(=O)CNC(=O)[C@H](CO)NC(=O)[C@@H](NC(=O)[C@H](C)NC(=O)[C@H](CCCCN)NC(=O)[C@H](CC(=O)O)NC(=O)[C@@H](NC(=O)[C@H](CCC(=O)O)NC(=O)[C@H](CC(C)C)NC(=O)[C@H](CC(=O)O)NC(=O)[C@@H](N)CC(C)C)C(C)C)C(C)C)C(=O)N[C@@H](CCCNC(=N)N)C(=O)N[C@@H](CO)C(=O)N[C@@H](CC(C)C)C(=O)N[C@H](C(=O)N[C@H](C(=O)N[C@@H](CC(C)C)C(=O)N[C@@H](CC(C)C)C(=O)N[C@@H](CCCNC(=N)N)C(=O)N[C@@H](C)C(=O)N[C@@H](CC(C)C)C(=O)NCC(=O)O)[C@@H](C)O)[C@@H](C)O [ML1-C1] (H-LDLEVDKAVSGLRSLTTLLRALG-OH; N-terminus and C-terminus assumed) | – | – | 1745.7 | 0.2617 | –
CC[C@H](C)[C@H](NC(=O)[C@H](C)NC(=O)[C@H](CCC(=O)O)NC(=O)[C@H](CCCCN)NC(=O)[C@H](CCC(N)=O)NC(=O)[C@H](C)NC(=O)CNC(=O)[C@H](CC(C)C)NC(=O)[C@H](C)NC(=O)[C@H](CCCNC(=N)N)NC(=O)[C@H](CC(C)C)NC(=O)[C@H](CC(C)C)NC(=O)[C@H](CO)NC(=O)[C@@H](NC(=O)[C@H](CC(C)C)NC(=O)[C@H](CO)NC(=O)[C@H](CCCNC(=N)N)NC(=O)[C@H](CC(C)C)NC(=O)CNC(=O)[C@@H](N)CCCCN)[C@@H](C)CC)C(=O)O [ML6-1] (H-KGLRSLISLLRALGAQKEAI-OH; N-terminus and C-terminus assumed) | 1.9 × 10^2 | 3 × 10^−2 | – | – | –
CC(C)C[C@H](NC(=O)CNC(=O)[C@H](CO)NC(=O)[C@@H](NC(=O)[C@H](C)NC(=O)[C@H](CCCCN)NC(=O)[C@H](CC(=O)O)NC(=O)[C@@H](NC(=O)[C@H](Cc1c[nH]cn1)NC(=O)[C@H](CC(C)C)NC(=O)[C@H](CCC(N)=O)NC(=O)[C@@H](N)CC(C)C)C(C)C)C(C)C)C(=O)N[C@@H](CCCNC(=N)N)C(=O)N[C@@H](CO)C(=O)N[C@@H](CC(C)C)C(=O)N[C@H](C(=O)N[C@H](C(=O)N[C@@H](CC(C)C)C(=O)N[C@@H](CC(C)C)C(=O)N[C@@H](CCCNC(=N)N)C(=O)N[C@@H](C)C(=O)N[C@@H](CC(C)C)C(=O)NCC(=O)O)[C@@H](C)O)[C@@H](C)O [ML1] (H-LQLHVDKAVSGLRSLTTLLRALG-OH; N-terminus and C-terminus assumed) | 1.311 × 10^3 | 8.5 × 10^−3 | 1310.8 | 8.47E−03 | 6.46 µM
CC(C)C[C@H](NC(=O)CNC(=O)[C@H](CCCCN)NC(=O)[C@@H](NC(=O)[C@H](CCCNC(=N)N)NC(=O)[C@H](CCCCN)NC(=O)[C@H](CCCCN)NC(=O)[C@@H](NC(=O)[C@H](Cc1c[nH]cn1)NC(=O)[C@H](CCCNC(=N)N)NC(=O)[C@H](CCC(N)=O)NC(=O)[C@@H](N)CC(C)C)C(C)C)C(C)C)C(=O)N[C@@H](CCCCN)C(=O)N[C@@H](CO)C(=O)N[C@@H](CC(C)C)C(=O)N[C@H](C(=O)N[C@H](C(=O)N[C@@H](CC(C)C)C(=O)N[C@@H](CC(C)C)C(=O)N[C@@H](CCCNC(=N)N)C(=O)N[C@@H](C)C(=O)N[C@@H](CC(C)C)C(=O)NCC(=O)O)[C@@H](C)O)[C@@H](C)O [ML1-C3] (H-LQRHVKKRVKGLKSLTTLLRALG-OH; N-terminus and C-terminus assumed) | – | – | 1104.9 | 0.01086 | –
CC(C)C[C@H](NC(=O)CNC(=O)[C@H](C)N)C(=O)N[C@@H](CCCNC(=N)N)C(=O)N[C@@H](CO)C(=O)N[C@@H](CCCNC(=N)N)C(=O)N[C@@H](C)C(=O)N[C@@H](Cc1c[nH]cn1)C(=O)N[C@@H](CC(C)C)C(=O)N[C@@H](CCCNC(=N)N)C(=O)N[C@@H](CCCNC(=N)N)C(=O)N[C@@H](C)C(=O)N[C@@H](CC(C)C)C(=O)N[C@@H](C)C(=O)O [ML5-1] (H-AGLRSRAHLRRALA-OH; N-terminus and C-terminus assumed) | 4.42 × 10^2 | 3.46 × 10^−2 | – | – | –
CC(C)[C@H](NC(=O)[C@H](CCCCN)NC(=O)[C@@H](N)[C@@H](C)O)C(=O)N[C@@H](CC(N)=O)C(=O)N[C@@H](Cc1ccccc1)C(=O)N[C@@H](Cc1ccc(O)cc1)C(=O)N[C@@H](C)C(=O)N[C@@H](Cc1c[nH]c2ccccc12)C(=O)N[C@@H](CCCCN)C(=O)N[C@@H](CCCNC(=N)N)C(=O)O [ML3] (H-TKVNFYAWKR-OH; N-terminus and C-terminus assumed) | 2.05 × 10^2 | 3 × 10^−3 | – | – | –
CC[C@H](C)[C@H](NC(=O)[C@H](C)NC(=O)[C@H](CCC(=O)O)NC(=O)[C@H](CCCCN)NC(=O)[C@H](CCC(N)=O)NC(=O)[C@H](C)NC(=O)CNC(=O)[C@H](CC(C)C)NC(=O)[C@H](C)NC(=O)[C@H](CCCNC(=N)N)NC(=O)[C@H](CC(C)C)NC(=O)[C@@H](NC(=O)[C@H](Cc1c[nH]cn1)NC(=O)[C@@H](NC(=O)[C@H](CC(C)C)NC(=O)[C@@H](NC(=O)[C@H](CCCCN)NC(=O)[C@H](CC(C)C)NC(=O)CNC(=O)[C@H](CO)NC(=O)[C@@H](NC(=O)[C@H](C)NC(=O)[C@H](CCCCN)NC(=O)[C@@H](N)CCCCN)C(C)C)[C@@H](C)O)[C@@H](C)O)[C@@H](C)CC)C(=O)O [ML4-1] (H-KKAVSGLKTLTHILRALGAQKEAI-OH; N-terminus and C-terminus assumed) | 4.10 × 10^2 | 1.20 × 10^−2 | – | – | –
CC(C)C[C@H](NC(=O)[C@H](C)NC(=O)[C@H](CCCNC(=N)N)NC(=O)[C@H](CC(C)C)NC(=O)[C@H](CC(C)C)NC(=O)[C@@H](NC(=O)[C@@H](NC(=O)[C@H](CC(C)C)NC(=O)[C@H](CO)NC(=O)[C@H](CCCNC(=N)N)NC(=O)[C@H](CC(C)C)NC(=O)CNC(=O)[C@H](CO)NC(=O)[C@@H](NC(=O)[C@H](C)NC(=O)[C@H](CCCCN)NC(=O)[C@H](CC(=O)O)NC(=O)[C@@H](NC(=O)[C@H](Cc1c[nH]cn1)NC(=O)[C@@H](N)CC(C)C)C(C)C)C(C)C)[C@@H](C)O)[C@@H](C)O)C(=O)O [ML2] (H-LHVDKAVSGLRSLTTLLRAL-OH; N-terminus and C-terminus assumed) | – | 4.4 × 10^−3 | – | – | –
CC(C)C[C@H](NC(=O)CNC(=O)[C@H](CO)NC(=O)[C@@H](NC(=O)[C@H](CCCNC(=N)N)NC(=O)[C@H](CCCCN)NC(=O)[C@H](CC(=O)O)NC(=O)[C@@H](NC(=O)[C@H](Cc1c[nH]cn1)NC(=O)[C@H](CCCNC(=N)N)NC(=O)[C@H](CCC(N)=O)NC(=O)[C@@H](N)CC(C)C)C(C)C)C(C)C)C(=O)N[C@@H](CCCNC(=N)N)C(=O)N[C@@H](CO)C(=O)N[C@@H](CC(C)C)C(=O)N[C@H](C(=O)N[C@H](C(=O)N[C@@H](CC(C)C)C(=O)N[C@@H](CC(C)C)C(=O)N[C@@H](CCCNC(=N)N)C(=O)N[C@@H](C)C(=O)N[C@@H](CC(C)C)C(=O)NCC(=O)O)[C@@H](C)O)[C@@H](C)O [ML1-C2] (H-LQRHVDKRVSGLRSLTTLLRALG-OH; N-terminus and C-terminus assumed) | – | – | 1.59E+03 | 0.01876 | –
